Literature values in patent publication EP3021668B1, “EMULSIFIABLE CONCENTRATE COMPRISING PESTICIDE, ALKYL LACTATE, FATTY AMIDE AND ACETOPHENONE” (BASF SE, priority 2013, dated 2015).

Assays:
[1] = pure solvents; according to the Annex III of European Union Directive 67/548/EEC
[2] = at 20 °C

In the case of `CCCC[C@H](CC)COC(=O)C(C)O` (stereo partly drawn) [(S)-2-ethylhexyl lactate], the eye toxicity classification [1] is listed as “R36 "Irritating to eyes"”.
In the case of `CC(=O)c1ccccc1` [acetophenone], the eye toxicity classification [1] is given as “R36 "Irritating to eyes"”.
For `Cn1cc(C(=O)Nc2ccccc2-c2cc(F)c(F)c(F)c2)c(C(F)F)n1` [fluxapyroxad], the soluble in water [2] is listed as “about 4 mg/l”.
For `COC(=O)N(OC)c1ccccc1COc1ccn(-c2ccc(Cl)cc2)n1` [pyraclostrobin], the soluble in water [2] is given as “about 2 mg/l”.
